Results reported in US12252644B2, “Polarizer and image display device” (FUJIFILM Corporation, priority 2019, dated 2025).

Experiment: Measurement of maximum absorption wavelength
Assay type: physicochemical
Settings: solution in a good solvent, spectrophotometer UV-3150, 250 to 800 nm
Protocol: The maximum absorption wavelength (nm) of the dichroic material in the present specification is acquired from an ultraviolet visible spectrum in a wavelength range of 380 to 800 nm measured by a spectrophotometer using a solution prepared by dissolving the dichroic material in a good solvent.
The maximum absorption wavelengths of the dichroic materials used in the examples and the comparative examples were measured. The maximum absorption wavelength was acquired from the ultraviolet visible light spectrum in a wavelength range of 250 to 800 nm which was measured by a spectrophotometer (product name, “UV-3150”, manufactured by Shimadzu Corporation) using a solution in which the dichroic material was dissolved in a good solvent.

Compound | First dichroic material maximum absorption wavelength [nm] | Second dichroic material maximum absorption wavelength [nm] | Third dichroic material maximum absorption wavelength [nm]
C=CC(=O)OCCN(CC)c1ccc(N=Nc2nc3sc(N=Nc4ccc(OCCCCCCCCCOC(C)=O)cc4)cc3s2)cc1 [Example C-1] | 591 |  | 
CCC(=O)OCCN(C)c1ccc(N=Nc2ccc(N=Nc3ccc(OCCCCCCCCCOC(C)=O)cc3)cc2)cc1 [Example M-1] |  | 466 | 
CCC(=O)OCCCCCCCCCOc1ccc(N=Nc2ccc(N=Nc3ccc(N(CC)CCOC(=O)CC)cc3)cc2)cc1 [Example M-2] |  | 471 | 
C=CC(=O)OCCN(CC)c1ccc(N=Nc2ccc(N=Nc3ccc(OCCCCCCCCCOC(=O)CC)cc3)cc2)cc1 [Example M-3] |  | 471 | 
CCC(=O)OCCCCCCCCCOc1ccc(N=Nc2ccc(N=Nc3ccc(N(CC)CCC#N)cc3)cc2)c(Cl)c1 [Example M-4] |  | 460 | 
CCN(CC)c1ccc(N=Nc2ccc(N=Nc3ccc(OCCCCCCCCCOC(C)=O)cc3)cc2)cc1 [Example M-5] |  | 484 | 
CC(=O)OCCCCCCCCCOc1ccc(N=Nc2ccc(N=Nc3ccc(N(C)CCOC(C)=O)cc3)cc2)cc1 [Example M-6] |  | 465 | 
C=CC(=O)OCCCCOc1ccc(N=Nc2ccc(N=Nc3ccc(N=Nc4ccc(OCCCCOC(C)=O)cc4)cc3)c(C)c2)cc1 [Example Y-1] |  |  | 418
CCOC(=O)CCCCOc1ccc(N=Nc2ccc(N=Nc3ccc(N=Nc4ccc(OCCCCC(=O)OCC)cc4)cc3C)cc2)cc1 [Example Y-2] |  |  | 418
